{
  "source": "paper PMC3929664",
  "about": "“A Panel of Diverse Assays to Interrogate the Interaction between Glucokinase and Glucokinase Regulatory Protein, Two Vital Proteins in Human Disease” (PLoS ONE, 2014)",
  "target": "T1, GCK enzymatic reaction inhibited by GKRP (recombinant human GCK and GKRP) (Homo sapiens, UniProt P35557+Q14397)",
  "T1 construct": "made in house",
  "T1 sequence (P35557 1-465)": "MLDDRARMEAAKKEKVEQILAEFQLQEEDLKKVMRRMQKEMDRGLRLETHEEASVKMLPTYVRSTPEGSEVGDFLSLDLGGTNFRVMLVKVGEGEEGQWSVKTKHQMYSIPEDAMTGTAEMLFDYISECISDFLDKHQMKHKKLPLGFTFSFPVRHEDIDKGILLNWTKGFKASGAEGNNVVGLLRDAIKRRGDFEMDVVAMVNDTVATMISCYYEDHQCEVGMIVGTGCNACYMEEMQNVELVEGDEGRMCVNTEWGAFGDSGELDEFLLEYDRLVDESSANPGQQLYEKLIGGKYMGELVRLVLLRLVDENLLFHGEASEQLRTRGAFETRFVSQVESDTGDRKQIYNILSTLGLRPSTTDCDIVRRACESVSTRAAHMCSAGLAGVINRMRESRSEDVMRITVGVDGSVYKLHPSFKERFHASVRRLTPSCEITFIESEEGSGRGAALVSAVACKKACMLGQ",
  "T1 sequence (Q14397 1-625)": "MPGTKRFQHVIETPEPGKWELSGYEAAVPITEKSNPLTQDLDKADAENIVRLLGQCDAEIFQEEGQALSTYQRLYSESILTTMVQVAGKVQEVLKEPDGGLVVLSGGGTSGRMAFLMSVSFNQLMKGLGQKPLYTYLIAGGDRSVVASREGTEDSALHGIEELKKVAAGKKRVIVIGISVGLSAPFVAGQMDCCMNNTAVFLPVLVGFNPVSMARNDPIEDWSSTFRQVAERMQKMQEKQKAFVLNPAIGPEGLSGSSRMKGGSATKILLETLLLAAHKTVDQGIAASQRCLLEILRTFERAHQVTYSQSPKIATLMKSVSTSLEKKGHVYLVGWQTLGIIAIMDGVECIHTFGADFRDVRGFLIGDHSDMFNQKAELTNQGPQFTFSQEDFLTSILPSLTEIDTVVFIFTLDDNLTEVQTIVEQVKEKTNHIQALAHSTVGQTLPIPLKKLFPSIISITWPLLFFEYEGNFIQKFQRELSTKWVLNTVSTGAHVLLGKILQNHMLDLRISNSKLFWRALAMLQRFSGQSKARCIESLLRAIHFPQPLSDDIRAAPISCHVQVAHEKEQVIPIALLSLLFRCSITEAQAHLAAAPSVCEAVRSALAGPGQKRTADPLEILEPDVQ",
  "assay": "Diaphorase-coupled kinetic assay (G6PDH/diaphorase dual-coupled)",
  "format": "biochemical",
  "conditions": "10 nM GCK, 10 nM GKRP; for LOPAC1280 screen outcome: 1.5 µM S6P",
  "description": "The glucose 6-phosphate dehydrogenase (G6PDH)-coupled kinetic assay described previously was adapted for high-throughput screening by dispensing 2 µl diaphorase-coupled substrate assay buffer (pH 7.1) to give final reaction conditions of 25 mM HEPES, 25 mM KCl, 2 mM MgCl2, 1.4 mM 2-mercaptoethanol, 0.025% BSA, 0.01% Tween-20, 0.15 mM NADP^+, 5 mM glucose, 0.4 mM ATP, 4 U/ml G6PDH, and 0.1 mM resazurin (all Sigma-Aldrich, except ATP which was from Promega) into black 1536-well medium binding plates (Greiner Bio-One) using a BioRAPTR. The reaction was then initiated by addition of 2 µl of diaphorase-coupled enzyme assay buffer containing indicated concentrations of GST-GCK, FLAG-GKRP, and diaphorase (Sigma-Aldrich; final concentration 0.1 mg/ml). Reaction progress was followed by quantitation of the fluorescent product resorufin generated from resazurin with excitation at 525 nm and emission at 590 nm using a ViewLux Microplate Imager. Plates were read every minute for 30 minutes. […] For the LOPAC^1280 library screen, column 1 was all components with DMSO (maximum signal) and column 3 was no GCK with DMSO (minimum signal). These two control columns were used for data normalization. The final HTS protocol is in Table S2, and the data have been deposited in PubChem (AID 743205).\nS6P, F1P, and glucose were dissolved in water; GKAs were dissolved in DMSO.\nThe G6PDH-coupled kinetic assay system described in [24] was utilized as a basis for developing a high-throughput screening assay to detect G6P generation. Because NADPH (excitation 340 nm, emission 450 nm) has spectral overlap with many fluorescent small molecule compounds, NADPH generation by G6PDH was coupled to NADPH-dependent reduction of resazurin to the fluorescent resorufin (excitation 525 nm, emission 590 nm) catalyzed by diaphorase ( Figure 1B ). Initial assay validation was carried out over a range (0–20 nM) of GCK and GKRP concentrations ( Figure 4A ). Additionally, seven different control mixes of NADP^+ and NADPH were tested in duplicate to generate a standard curve. The total NADP^+/NADPH concentration was 0.15 mM for all controls, with 0, 5, 10, 30, 50, 70, or 100% NADPH. This allowed estimation of the amount of NADP^+ that had been converted by the GCK reaction throughout the time-course ( Figure 4A , dashed lines). The assay is sensitive to very low levels of conversion.\nThe reaction rate for both 10 nM GCK alone and for 10 nM GCK with 10 nM GKRP was linear for the entire 30-minute time-course. The combination of linearity and the relatively low percent conversion of NADP^+ led us to select t = 10 minutes as providing an appropriate signal window for all future analyses. […] The IC80 value for S6P was calculated as 1.5 µM. Accordingly, this S6P concentration was utilized for all remaining diaphorase-coupled experiments.",
  "note": "Counter-ions that a name gives are not always drawn.",
  "data": [
    {"smiles": "O=C(O)C1=CC(=C(c2ccc(O)c(C(=O)O)c2)c2ccc(O)c(C(=O)O)c2)C=CC1=O", "note": "[ATA, aurintricarboxylic acid]", "values": [
      {"measurement": "LOPAC1280 screen outcome", "result": "inhibitors of the GCK-GKRP interaction"}
    ]},
    {"smiles": "O=C(COP(=O)(O)O)[C@@H](O)[C@H](O)[C@H](O)CO", "note": "[F1P, fructose 1-phosphate]", "values": [
      {"measurement": "EC50", "setting": "t = 10 minutes, mean ± SD", "result": "4000 ± 500", "unit": "nM"}
    ]},
    {"smiles": "O=P(O)(O)OC[C@@H](O)[C@@H](O)[C@H](O)[C@@H](O)CO", "note": "[S6P, sorbitol 6-phosphate]", "values": [
      {"measurement": "IC80", "result": 1500, "unit": "nM"},
      {"measurement": "IC50", "setting": "t = 10 minutes, mean ± SD", "result": "400 ± 40", "unit": "nM"}
    ]},
    {"smiles": "Cc1ccc(C(=O)Nc2ccc(S(=O)(=O)O)c3cc(S(=O)(=O)O)cc(S(=O)(=O)O)c23)cc1NC(=O)c1cccc(NC(=O)Nc2cccc(C(=O)Nc3cc(C(=O)Nc4ccc(S(=O)(=O)O)c5cc(S(=O)(=O)O)cc(S(=O)(=O)O)c45)ccc3C)c2)c1", "note": "[suramin sodium salt]", "values": [
      {"measurement": "LOPAC1280 screen outcome", "result": "inhibitors of the GCK-GKRP interaction"}
    ]}
  ]
}
